According to patent US9113629B2, “4-amino-6-(4-substituted-phenyl)-picolinates and 6-amino-2-(4-substituted-phenyl)-pyrimidine-4-carboxylates and their use as herbicides” (DOW AGROSCIENCES LLC, priority 2013, dated 2015):
Where two headings read alike, the source gives them in different places.

What was measured:
[1] = system: Key Broadleaf Weed and Crop Species; experiment: Post-emergent Test II herbicidal activity (Table 5); assay type: in vivo; settings: for pest or weed control at 70 g/ha / pest or weed control at 140 g/ha: post-emergence, 336 h, 14 days after application
Protocol: (§1) Post-emergent Test II: Seeds or nutlets of the desired test plant species were planted in Sun Gro Metro-Mix® 360 planting mixture, which typically has a pH of 6.0 to 6.8 and an organic matter content of about 30 percent, in plastic pots with a surface area of 64 square centimeters. When required to ensure good germination and healthy plants, a fungicide treatment and/or other chemical or physical treatment was applied. The plants were grown for 7-21 d in a greenhouse with an approximate 15 h photoperiod which was maintained at about 23-29° C. during the day and 22-28° C. during the night. Nutrients and water were added on a regular basis and supplemental lighting was provided with overhead metal halide 1000-Watt lamps as necessary. The plants were employed for testing when they reached the first or second true leaf stage.
(§2) A weighed amount, determined by the highest rate to be tested, of each test compound was placed in a 25 mL glass vial and was dissolved in 4 mL of a 97:3 v/v mixture of acetone and DMSO to obtain concentrated stock solutions. […] The concentrated stock solutions obtained were diluted with 20 mL of an aqueous mixture containing acetone, water, isopropyl alcohol, DMSO. Atplus 411F crop oil concentrate, and Triton® X-155 surfactant in a 48.5:39:10:1.5:1.0:0.02 v/v ratio to obtain spray solutions containing the highest application rates. Additional application rates were obtained by serial dilution of 12 mL of the high rate solution into a solution containing 2 mL of 97:3 v/v mixture of acetone and DMSO and 10 mL of an aqueous mixture containing acetone, water, isopropyl alcohol, DMSO, Atplus 411F crop oil concentrate, and Triton X-155 surfactant in a 48.5:39:10:1.5:1.0:0.02 v/v ratio to obtain ½×, ¼×, ⅛× and 1/16× rates of the high rate. Compound requirements are based upon a 12 mL application volume at a rate of 187 liters per hectare (L/ha). Formulated compounds were applied to the plant material with an overhead Mandel track sprayer equipped with 8002E nozzles calibrated to deliver 187 L/ha over an application area of 0.503 square meters at a spray height of 18 inches (43 cm) above the average plant canopy height. Control plants were sprayed in the same manner with the solvent blank.
(§3) The treated plants and control plants were placed in a greenhouse as described above and watered by subirrigation to prevent wash-off of the test compounds. After 14 d, the condition of the test plants as compared with that of the untreated plants was determined visually and scored on a scale of 0 to 100 percent where 0 corresponds to no injury and 100 corresponds to complete kill.

[2] = system: Key Grass and Sedge Weeds as well as Grass Crops; experiment: Post-emergent Test II herbicidal activity (Table 6); assay type: in vivo; settings: for Visual Growth Reduction (%) 14 Days After Application, SORVU: SORVU: sorghum (Sorghum vulgare); for pest or weed control at 70 g/ha / pest or weed control at 140 g/ha: post-emergence, 336 h
Protocol: as §1, §2, §3

Compound: COC(=O)c1nc(-c2ccc([N+](=O)[O-])cc2F)c(F)c(N)c1Cl [Compound 80]
- Visual Growth Reduction (%) 14 Days After Application, ABUTH ([1]; ABUTH: velvetleaf (Abutilon theophrasti), application rate 70 g ai/ha): G (0-29)
- Visual Growth Reduction (%) 14 Days After Application, ABUTH ([1]; ABUTH: velvetleaf (Abutilon theophrasti), application rate 140 g ai/ha): G (0-29)
- Visual Growth Reduction (%) 14 Days After Application, AMARE ([1]; AMARE: redroot pigweed (Amaranthus retroflexus), application rate 70 g ai/ha): D (60-74)
- Visual Growth Reduction (%) 14 Days After Application, AMARE ([1]; AMARE: redroot pigweed (Amaranthus retroflexus), application rate 140 g ai/ha): B (85-94)
- Visual Growth Reduction (%) 14 Days After Application, BRSNN ([1]; BRSNN: oilseed-rape, canola (Brassica napus), application rate 70 g ai/ha): G (0-29)
- Visual Growth Reduction (%) 14 Days After Application, BRSNN ([1]; BRSNN: oilseed-rape, canola (Brassica napus), application rate 140 g ai/ha): G (0-29)
- Visual Growth Reduction (%) 14 Days After Application, CHEAL ([1]; CHEAL: lambsquarters (Chenopodium album), application rate 70 g ai/ha): A (95-100)
- Visual Growth Reduction (%) 14 Days After Application, CHEAL ([1]; CHEAL: lambsquarters (Chenopodium album), application rate 140 g ai/ha): A (95-100)
- Visual Growth Reduction (%) 14 Days After Application, EPHHL ([1]; EPHHL: wild poinsettia (Euphorbia heterophylla), application rate 70 g ai/ha): C (75-84)
- Visual Growth Reduction (%) 14 Days After Application, EPHHL ([1]; EPHHL: wild poinsettia (Euphorbia heterophylla), application rate 140 g ai/ha): C (75-84)
- Visual Growth Reduction (%) 14 Days After Application, HELAN ([1]; HELAN: sunflower (Helianthus annuus), application rate 70 g ai/ha): D (60-74)
- Visual Growth Reduction (%) 14 Days After Application, HELAN ([1]; HELAN: sunflower (Helianthus annuus), application rate 140 g ai/ha): C (75-84)
- Visual Growth Reduction (%) 14 Days After Application, VIOTR ([1]; VIOTR: wild pansy (Viola tricolor), application rate 70 g ai/ha): G (0-29)
- Visual Growth Reduction (%) 14 Days After Application, VIOTR ([1]; VIOTR: wild pansy (Viola tricolor), application rate 140 g ai/ha): G (0-29)
- Visual Growth Reduction (%) 14 Days After Application, CYPES ([2]; CYPES: yellow nutsedge (Cyperus esculentus), 70 g ai/ha): G (0-29)
- Visual Growth Reduction (%) 14 Days After Application, CYPES ([2]; CYPES: yellow nutsedge (Cyperus esculentus), 140 g ai/ha): G (0-29)
- Visual Growth Reduction (%) 14 Days After Application, DIGSA ([2]; DIGSA: crabgrass (Digitaria sanguinalis), 70 g ai/ha): G (0-29)
- Visual Growth Reduction (%) 14 Days After Application, DIGSA ([2]; DIGSA: crabgrass (Digitaria sanguinalis), 140 g ai/ha): G (0-29)
- Visual Growth Reduction (%) 14 Days After Application, ECHCG ([2]; ECHCG: barnyardgrass (Echinochloa crus-galli), 70 g ai/ha): G (0-29)
- Visual Growth Reduction (%) 14 Days After Application, ECHCG ([2]; ECHCG: barnyardgrass (Echinochloa crus-galli), 140 g ai/ha): G (0-29)
- Visual Growth Reduction (%) 14 Days After Application, ORYSA ([2]; ORYSA: rice (Oryza sativa), crop, 70 g ai/ha): G (0-29)
- Visual Growth Reduction (%) 14 Days After Application, ORYSA ([2]; ORYSA: rice (Oryza sativa), crop, 140 g ai/ha): G (0-29)
- Visual Growth Reduction (%) 14 Days After Application, SETFA ([2]; SETFA: giant foxtail (Setaria faberi), 70 g ai/ha): G (0-29)
- Visual Growth Reduction (%) 14 Days After Application, SETFA ([2]; SETFA: giant foxtail (Setaria faberi), 140 g ai/ha): G (0-29)
- Visual Growth Reduction (%) 14 Days After Application, SORVU ([2]; 70 g ai/ha): G (0-29)
- Visual Growth Reduction (%) 14 Days After Application, SORVU ([2]; 140 g ai/ha): G (0-29)
- Visual Growth Reduction (%) 14 Days After Application, TRZSS ([2]; TRZSS (wheat, Triticum aestivum), crop, 70 g ai/ha): G (0-29)
- Visual Growth Reduction (%) 14 Days After Application, TRZSS ([2]; TRZSS (wheat, Triticum aestivum), crop, 140 g ai/ha): G (0-29)
- Visual Growth Reduction (%) 14 Days After Application, ZEAMX ([2]; ZEAMX: maize, corn (Zea mays), crop, 70 g ai/ha): G (0-29)
- Visual Growth Reduction (%) 14 Days After Application, ZEAMX ([2]; ZEAMX: maize, corn (Zea mays), crop, 140 g ai/ha): G (0-29)

Compound: COc1c(N)nc(-c2ccc(I)cc2)nc1C(=O)O [Compound 88]
- pest or weed control at 70 g/ha ([1]; ABUTH: velvetleaf (Abutilon theophrasti), application rate 70 g ai/ha, read-out: Visual Growth Reduction (%) 14 Days After Application, ABUTH): 75 to 84%
- pest or weed control at 140 g/ha ([1]; ABUTH: velvetleaf (Abutilon theophrasti), application rate 140 g ai/ha, read-out: Visual Growth Reduction (%) 14 Days After Application, ABUTH): 95 to 100%
- pest or weed control at 70 g/ha ([1]; AMARE: redroot pigweed (Amaranthus retroflexus), application rate 70 g ai/ha, read-out: Visual Growth Reduction (%) 14 Days After Application, AMARE): 85 to 94%
- pest or weed control at 140 g/ha ([1]; AMARE: redroot pigweed (Amaranthus retroflexus), application rate 140 g ai/ha, read-out: Visual Growth Reduction (%) 14 Days After Application, AMARE): 85 to 94%
- pest or weed control at 70 g/ha ([1]; BRSNN: oilseed-rape, canola (Brassica napus), application rate 70 g ai/ha, read-out: Visual Growth Reduction (%) 14 Days After Application, BRSNN): 95 to 100%
- pest or weed control at 140 g/ha ([1]; BRSNN: oilseed-rape, canola (Brassica napus), application rate 140 g ai/ha, read-out: Visual Growth Reduction (%) 14 Days After Application, BRSNN): 95 to 100%
- pest or weed control at 140 g/ha ([1]; CHEAL: lambsquarters (Chenopodium album), application rate 140 g ai/ha, read-out: Visual Growth Reduction (%) 14 Days After Application, CHEAL): 95 to 100%
- pest or weed control at 70 g/ha ([1]; EPHHL: wild poinsettia (Euphorbia heterophylla), application rate 70 g ai/ha, read-out: Visual Growth Reduction (%) 14 Days After Application, EPHHL): 95 to 100%
- pest or weed control at 140 g/ha ([1]; EPHHL: wild poinsettia (Euphorbia heterophylla), application rate 140 g ai/ha, read-out: Visual Growth Reduction (%) 14 Days After Application, EPHHL): 95 to 100%
- pest or weed control at 70 g/ha ([1]; HELAN: sunflower (Helianthus annuus), application rate 70 g ai/ha, read-out: Visual Growth Reduction (%) 14 Days After Application, HELAN): 85 to 94%
- pest or weed control at 140 g/ha ([1]; HELAN: sunflower (Helianthus annuus), application rate 140 g ai/ha, read-out: Visual Growth Reduction (%) 14 Days After Application, HELAN): 85 to 94%
- pest or weed control at 70 g/ha ([1]; VIOTR: wild pansy (Viola tricolor), application rate 70 g ai/ha, read-out: Visual Growth Reduction (%) 14 Days After Application, VIOTR): 45 to 59%
- pest or weed control at 140 g/ha ([1]; VIOTR: wild pansy (Viola tricolor), application rate 140 g ai/ha, read-out: Visual Growth Reduction (%) 14 Days After Application, VIOTR): 60 to 74%
- pest or weed control at 70 g/ha ([2]; CYPES: yellow nutsedge (Cyperus esculentus), 70 g ai/ha, read-out: Visual Growth Reduction (%) 14 Days After Application, CYPES): 85 to 94%
- pest or weed control at 140 g/ha ([2]; CYPES: yellow nutsedge (Cyperus esculentus), 140 g ai/ha, read-out: Visual Growth Reduction (%) 14 Days After Application, CYPES): 95 to 100%
- pest or weed control at 70 g/ha ([2]; DIGSA: crabgrass (Digitaria sanguinalis), 70 g ai/ha, read-out: Visual Growth Reduction (%) 14 Days After Application, DIGSA): 0 to 29%
- pest or weed control at 140 g/ha ([2]; DIGSA: crabgrass (Digitaria sanguinalis), 140 g ai/ha, read-out: Visual Growth Reduction (%) 14 Days After Application, DIGSA): 0 to 29%
- pest or weed control at 70 g/ha ([2]; ECHCG: barnyardgrass (Echinochloa crus-galli), 70 g ai/ha, read-out: Visual Growth Reduction (%) 14 Days After Application, ECHCG): 75 to 84%
- pest or weed control at 140 g/ha ([2]; ECHCG: barnyardgrass (Echinochloa crus-galli), 140 g ai/ha, read-out: Visual Growth Reduction (%) 14 Days After Application, ECHCG): 75 to 84%
- pest or weed control at 70 g/ha ([2]; ORYSA: rice (Oryza sativa), crop, 70 g ai/ha, read-out: Visual Growth Reduction (%) 14 Days After Application, ORYSA): 0 to 29%
- pest or weed control at 140 g/ha ([2]; ORYSA: rice (Oryza sativa), crop, 140 g ai/ha, read-out: Visual Growth Reduction (%) 14 Days After Application, ORYSA): 0 to 29%
- pest or weed control at 70 g/ha ([2]; SETFA: giant foxtail (Setaria faberi), 70 g ai/ha, read-out: Visual Growth Reduction (%) 14 Days After Application, SETFA): 60 to 74%
- pest or weed control at 140 g/ha ([2]; SETFA: giant foxtail (Setaria faberi), 140 g ai/ha, read-out: Visual Growth Reduction (%) 14 Days After Application, SETFA): 85 to 94%
- pest or weed control at 70 g/ha ([2]; SORVU: grain sorghum (Sorghum vulgare), 70 g ai/ha, read-out: Visual Growth Reduction (%) 14 Days After Application, SORVU): 75 to 84%
- pest or weed control at 140 g/ha ([2]; SORVU: grain sorghum (Sorghum vulgare), 140 g ai/ha, read-out: Visual Growth Reduction (%) 14 Days After Application, SORVU): 85 to 94%
- pest or weed control at 70 g/ha ([2]; TRZSS (wheat, Triticum aestivum), crop, 70 g ai/ha, read-out: Visual Growth Reduction (%) 14 Days After Application, TRZSS): 60 to 74%
- pest or weed control at 140 g/ha ([2]; TRZSS (wheat, Triticum aestivum), crop, 140 g ai/ha, read-out: Visual Growth Reduction (%) 14 Days After Application, TRZSS): 60 to 74%
- pest or weed control at 70 g/ha ([2]; ZEAMX: maize, corn (Zea mays), crop, 70 g ai/ha, read-out: Visual Growth Reduction (%) 14 Days After Application, ZEAMX): 45 to 59%
- pest or weed control at 140 g/ha ([2]; ZEAMX: maize, corn (Zea mays), crop, 140 g ai/ha, read-out: Visual Growth Reduction (%) 14 Days After Application, ZEAMX): 45 to 59%
